Series [1] in a line: in vitro bioactive release profile of dexamethasone acetate from bioactive releasing membrane 70 (percent cumulative release by HPLC). In kind it is physicochemical. To be noted: over a time span of 16-35 days. The procedure: With reference to FIG. 5A, an exemplary in vitro bioactive release profiles for dexamethasone acetate is shown using exemplary bioactive releasing membrane 70. The percent cumulative release of dexamethasone acetate can be determined using HPLC, for example using a Phenomenex Kinetex 5μ EVO C18 100 Å, 50×3.0 mm column held at 25° C. with a 254 nm UV detector and an elution gradient of A: Water with 0.1% formic acid/B: Acetonitrile with 0.1% formic acid (vol/vol), where the gradient from time 0 to 2 minutes is 90% A/10% B; from 2-5 minutes is 10% A/90% B; and from 5 minutes is 90% A/10% B. Dexamethasone acetate and dexamethasone HPLC standards are prepared at concentrations of about 0.1-20 ug/mL.
With reference to FIG. 5B, experimental data of a release rate of a bioactive agent (dexamethasone acetate) from a bioactive releasing membrane 70 initially or during the first time period being greater than the release rate of the bioactive agent from the bioactive releasing membrane initially or during the second time period and the release rate of the bioactive agent from the bioactive releasing membrane initially or during the second time period is greater than the release rate of the bioactive agent from the bioactive releasing membrane initially or during the third time period is shown. […]

The nature of series [2]: additional release experiments with dexamethasone salts in different bioactive releasing membrane combinations. It counts as physicochemical. To be noted: in a water-soluble cellulosic based polymer.
Description: Additional experiments were carried out using dexamethasone salts in different bioactive releasing membrane combinations.

For the compound `CC(=O)OCC(=O)[C@@]1(O)[C@H](C)C[C@H]2[C@@H]3CCC4=CC(=O)C=C[C@]4(C)[C@@]3(F)[C@@H](O)C[C@@]21C` [dexamethasone acetate], the “third release rate: release of the remaining amount” value in series [1] is “approximately 10%”.
Regarding `C[C@@H]1C[C@H]2[C@@H]3CCC4=CC(=O)C=C[C@]4(C)[C@@]3(F)[C@@H](O)C[C@]2(C)[C@@]1(O)C(=O)COP(=O)(O)O` [dexamethasone sodium phosphate], the release profile result in series [2] is listed as “bolus release profile”.

The record behind these values is US20230073214A1, “BIOACTIVE RELEASING MEMBRANE FOR ANALYTE SENSOR” (DexCom, Inc., priority 2021, published 2023).
